Format in all cases: functional, cell-based
Assay [1] addresses Taste receptor type 2 member 13 (Homo sapiens, UniProt Q9NYV9). The assay is described as follows: Agonist activity at human TAS2R13 expressed in HEK293T cells co-expressing Galpha15 assessed as increase in intracellular calcium level by Calcium-3 dye based fluorescence assay. On the technique in general: Calcium assays in cells follow changes in intracellular calcium, usually with a dye or a luminescent sensor.

Assay [2] deals with Taste receptor type 2 member 31 (Homo sapiens, UniProt P59538). The assay is described as follows: Agonist activity at human TAS2R44 expressed in HEK293T cells co-expressing Galpha15 assessed as increase in intracellular calcium level by Calcium-3 dye based fluorescence assay.
In assay [3] the target is Taste receptor type 2 member 14 (Homo sapiens, UniProt Q9NYV8). The assay is described as follows: Agonist activity at human TAS2R14 expressed in HEK293T cells co-expressing Galpha15 assessed as increase in intracellular calcium level by Calcium-3 dye based fluorescence assay.
In assay [4] the target is Taste receptor type 2 member 60 (Homo sapiens, UniProt P59551). The assay is described as follows: Agonist activity at human TAS2R60 expressed in HEK293T cells co-expressing Galpha15 assessed as increase in intracellular calcium level by Calcium-3 dye based fluorescence assay.
In assay [5] the target is Taste receptor type 2 member 9 (Homo sapiens, UniProt Q9NYW1). The assay is described as follows: Agonist activity at human TAS2R9 expressed in HEK293T cells co-expressing Galpha15 assessed as increase in intracellular calcium level by Calcium-3 dye based fluorescence assay.
Assay [6] has as its target Taste receptor type 2 member 4 (Homo sapiens, UniProt Q9NYW5). The assay is described as follows: Agonist activity at human TAS2R4 expressed in HEK293T cells co-expressing Galpha15 assessed as increase in intracellular calcium level by Calcium-3 dye based fluorescence assay.
In assay [7] the target is T1, Taste receptor type 2 member 43 (Homo sapiens) (UniProt P59537).
T1 sequence (whole entry): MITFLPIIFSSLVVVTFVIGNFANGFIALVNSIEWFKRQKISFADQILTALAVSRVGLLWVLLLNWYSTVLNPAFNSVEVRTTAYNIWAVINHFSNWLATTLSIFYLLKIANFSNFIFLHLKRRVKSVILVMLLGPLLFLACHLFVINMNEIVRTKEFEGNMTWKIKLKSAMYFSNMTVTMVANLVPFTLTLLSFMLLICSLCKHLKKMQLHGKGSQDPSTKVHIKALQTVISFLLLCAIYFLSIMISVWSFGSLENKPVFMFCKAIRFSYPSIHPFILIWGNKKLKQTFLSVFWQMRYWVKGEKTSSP
The assay is described as follows: Agonist activity at human TAS2R43 expressed in HEK293T cells co-expressing Galpha15 assessed as increase in intracellular calcium level at 20 mM by Calcium-3 dye based fluorescence assay relative to control.

Assay [8] concerns the target T2, Taste receptor type 2 member 16 (Homo sapiens) (UniProt Q9NYV7).
T2 sequence (whole entry): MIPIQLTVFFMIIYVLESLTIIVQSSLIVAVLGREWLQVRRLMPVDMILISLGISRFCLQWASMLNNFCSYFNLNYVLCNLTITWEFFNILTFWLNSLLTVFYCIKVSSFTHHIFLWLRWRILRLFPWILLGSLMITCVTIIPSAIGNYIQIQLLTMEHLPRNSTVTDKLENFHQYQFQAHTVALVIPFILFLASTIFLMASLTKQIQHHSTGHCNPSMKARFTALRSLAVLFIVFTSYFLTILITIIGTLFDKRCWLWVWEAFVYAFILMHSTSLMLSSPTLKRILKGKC
The assay is described as follows: Agonist activity at human TAS2R16 expressed in HEK293T cells co-expressing Galpha15 assessed as increase in intracellular calcium level at 20 mM by Calcium-3 dye based fluorescence assay relative to control.

Assay [9] addresses T3, Taste receptor type 2 member 14 (Homo sapiens) (UniProt Q9NYV8).
T3 sequence (whole entry): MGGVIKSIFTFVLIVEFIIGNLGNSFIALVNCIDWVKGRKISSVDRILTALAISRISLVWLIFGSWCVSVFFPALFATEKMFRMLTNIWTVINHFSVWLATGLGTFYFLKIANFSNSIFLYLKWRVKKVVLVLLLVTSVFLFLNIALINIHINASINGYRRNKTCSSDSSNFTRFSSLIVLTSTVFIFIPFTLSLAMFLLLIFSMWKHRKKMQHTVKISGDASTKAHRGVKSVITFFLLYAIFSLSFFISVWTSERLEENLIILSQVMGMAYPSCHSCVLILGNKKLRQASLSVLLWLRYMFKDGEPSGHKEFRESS
The assay is described as follows: Agonist activity at human TAS2R14 expressed in HEK293T cells co-expressing Galpha15 assessed as increase in intracellular calcium level at 20 mM by Calcium-3 dye based fluorescence assay relative to control.

Assay [10] addresses Taste receptor type 2 member 40 (Homo sapiens) (UniProt P59535). The assay is described as follows: Agonist activity at human TAS2R40 expressed in HEK293T cells co-expressing Galpha15 assessed as increase in intracellular calcium level at 20 mM by Calcium-3 dye based fluorescence assay relative to control.

One may read the EC50 as the midpoint of the concentration-response curve.

Sequence of Taste receptor type 2 member 40 (Homo sapiens) (P59535 whole entry): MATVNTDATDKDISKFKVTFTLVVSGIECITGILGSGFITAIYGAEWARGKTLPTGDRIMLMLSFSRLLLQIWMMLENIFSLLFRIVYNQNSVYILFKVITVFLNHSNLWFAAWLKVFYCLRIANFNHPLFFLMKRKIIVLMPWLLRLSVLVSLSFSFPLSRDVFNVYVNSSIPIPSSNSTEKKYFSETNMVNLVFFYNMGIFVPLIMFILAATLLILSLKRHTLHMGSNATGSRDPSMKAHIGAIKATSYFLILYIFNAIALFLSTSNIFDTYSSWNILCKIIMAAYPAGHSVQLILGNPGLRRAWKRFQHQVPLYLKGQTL
Sequence of Taste receptor type 2 member 31 (P59538 whole entry): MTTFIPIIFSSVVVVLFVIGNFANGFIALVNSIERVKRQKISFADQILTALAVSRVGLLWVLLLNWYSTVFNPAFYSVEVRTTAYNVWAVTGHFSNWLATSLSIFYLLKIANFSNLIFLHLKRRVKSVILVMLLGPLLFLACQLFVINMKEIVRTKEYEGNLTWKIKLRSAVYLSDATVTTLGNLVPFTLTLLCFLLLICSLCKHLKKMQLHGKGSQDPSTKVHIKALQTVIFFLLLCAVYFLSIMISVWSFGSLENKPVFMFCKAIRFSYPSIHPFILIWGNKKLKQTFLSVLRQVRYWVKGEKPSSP
Sequence of Taste receptor type 2 member 13 (Q9NYV9 whole entry): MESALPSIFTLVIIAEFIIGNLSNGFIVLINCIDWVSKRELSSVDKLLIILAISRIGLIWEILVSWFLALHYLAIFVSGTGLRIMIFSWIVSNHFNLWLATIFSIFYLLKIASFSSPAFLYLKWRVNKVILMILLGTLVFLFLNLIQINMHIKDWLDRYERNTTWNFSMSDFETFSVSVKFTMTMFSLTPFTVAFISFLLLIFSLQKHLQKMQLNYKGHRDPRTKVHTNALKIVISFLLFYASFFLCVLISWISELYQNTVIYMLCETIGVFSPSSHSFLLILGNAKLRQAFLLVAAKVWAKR
Sequence of Taste receptor type 2 member 4 (Q9NYW5 whole entry): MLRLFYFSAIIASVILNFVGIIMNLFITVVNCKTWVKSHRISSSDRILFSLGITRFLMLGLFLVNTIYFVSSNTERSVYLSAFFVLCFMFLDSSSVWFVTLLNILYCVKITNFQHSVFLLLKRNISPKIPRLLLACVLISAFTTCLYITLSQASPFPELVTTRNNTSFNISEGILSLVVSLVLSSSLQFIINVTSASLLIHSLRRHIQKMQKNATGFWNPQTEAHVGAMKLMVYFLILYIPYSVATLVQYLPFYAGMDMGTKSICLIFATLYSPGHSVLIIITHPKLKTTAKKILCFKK
Sequence of Taste receptor type 2 member 60 (P59551 whole entry): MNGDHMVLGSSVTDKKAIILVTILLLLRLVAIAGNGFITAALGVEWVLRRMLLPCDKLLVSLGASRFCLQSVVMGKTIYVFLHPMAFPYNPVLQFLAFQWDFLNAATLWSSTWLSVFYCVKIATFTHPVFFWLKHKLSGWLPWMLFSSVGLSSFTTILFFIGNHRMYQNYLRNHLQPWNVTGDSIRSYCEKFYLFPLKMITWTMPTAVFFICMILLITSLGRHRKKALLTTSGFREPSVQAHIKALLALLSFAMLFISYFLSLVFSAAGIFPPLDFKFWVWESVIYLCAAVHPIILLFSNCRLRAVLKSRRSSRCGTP
Sequence of Taste receptor type 2 member 9 (Q9NYW1 whole entry): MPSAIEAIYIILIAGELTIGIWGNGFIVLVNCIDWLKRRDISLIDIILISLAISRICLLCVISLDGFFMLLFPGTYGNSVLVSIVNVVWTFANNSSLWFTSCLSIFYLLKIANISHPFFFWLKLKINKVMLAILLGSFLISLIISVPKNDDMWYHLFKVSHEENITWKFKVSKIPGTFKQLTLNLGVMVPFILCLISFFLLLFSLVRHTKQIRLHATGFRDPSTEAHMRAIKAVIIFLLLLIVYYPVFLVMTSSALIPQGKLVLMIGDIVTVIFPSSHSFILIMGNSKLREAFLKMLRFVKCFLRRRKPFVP

Consider `[Cl-].[K+]` [POTASSIUM CHLORIDE], for which the EC50 in assay [1], in [2], in assay [3], in assay [4], in [5] and in assay [6] was 5 to 15 mM in each case. Moreover, the Activity in assay [7] was less than 40%; in assay [8] it was less than 40%; in [9] it was more than 40%; in [10], less than 40%.

Regarding `CC1=CC(=O)NS(=O)(=O)O1`, the Activity in assay [7] is less than 40%; in [8] it was more than 40%; in assay [9], more than 40%; in assay [10], less than 40%.

For `CC(O)C(=O)[O-].[K+]` (stereo not drawn), the Activity is less than 40% in assay [7], less than 40% in assay [8], more than 40% in assay [9] and less than 40% in assay [10].
